Columns and labels:
[1] = Compound toxicity, ATPLite total ATP levels; assay type: cell-based; details: human, HepG2 cells; concentration reducing total ATP levels by 50% relative to no drug controls; ATPLite three days after compound addition
Protocol: Compound toxicity is evaluated by seeding cells at 15,000 cells/well and treating with compound as described above.

HBV = assay: HepAD38 anti-HBV assay: reduction of viral product accumulation (virion DNA qPCR, HBsAg/HBeAg ELISA); assay type: cell-based; details: Hepatitis B virus, 120 h; HepAD38 cells; concentration reducing viral product accumulation by 50% relative to no drug controls; harvest five days after compound addition; read-out: HepAD38 EC50
Procedure, shortened: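 Tetracycline-free HepAD38 cells treated 5 days with compound (1:200 DMSO dilution), or 8 days with media and compound refreshed on d2 and d5. Virion DNA quantified by qPCR; HBsAg or HBeAg by ELISA. EC50 is the concentration reducing viral product accumulation 50% versus no-drug controls.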

| Structure (SMILES) | CC50 at 3 days [1] [µM] | EC50 (HBV) [µM] |
| --- | --- | --- |
| CS(=O)(=O)c1cccc(S(=O)(=O)N[C@H]2CC3=C(c4ccn(C(F)F)n4)[C@H](c4ccc(F)cc4Cl)N=C(c4nccs4)N3C2)c1 [Example 336] | > 25 | < 0.1 |
| O=S(=O)(CCCCO)N[C@H]1CC2=C(c3ccn(C(F)F)n3)[C@H](c3ccc(F)cc3Cl)N=C(c3nccs3)N2C1 [Example 280] | > 25 | < 0.1 |
| O=C(N[C@H]1CC2=C(c3ccn(C(F)F)n3)[C@H](c3ccc(F)cc3Cl)N=C(c3nccs3)N2C1)c1ccccn1 [Example 214] | 10 to 25 | < 0.1 |
| O=S(=O)(N[C@H]1CC2=C(c3ccn(C(F)F)n3)[C@H](c3ccc(F)cc3Cl)N=C(c3nccs3)N2C1)N[C@H](c1ccccn1)C1CC1 [Example 353] | > 25 | < 0.1 |
| O=S(=O)(N[C@H]1CC2=C(c3ccn(C(F)F)n3)[C@H](c3ccc(F)cc3Cl)N=C(c3nccs3)N2C1)[C@H]1C[C@H](O)C1 [Example 370] | > 25 | < 0.1 |
| O=Cc1ccc(S(=O)(=O)N[C@H]2CC3=C(c4ccn(C(F)F)n4)[C@H](c4ccc(F)cc4Cl)N=C(c4nccs4)N3C2)cc1 [Example 332] | > 25 | < 0.1 |
| O=S(=O)(N[C@H]1CC2=C(c3ccn(C(F)F)n3)[C@H](c3ccc(F)cc3Cl)N=C(c3nccs3)N2C1)N1CCC[C@@H](O)C1 [Example 94] | > 25 | < 0.1 |
| O=S(=O)(N[C@H]1CC2=C(c3ccn(C(F)F)n3)[C@H](c3ccc(F)cc3Cl)N=C(c3nccs3)N2C1)N1CCC(O)CC1 [Example 75] | > 25 | < 0.1 |
| O=S(=O)(N[C@H]1CC2=C(c3ccn(C(F)F)n3)[C@H](c3ccc(F)cc3Cl)N=C(c3nccs3)N2C1)c1ccc([C@H]2CC[C@H](O)CC2)cc1 [Example 381] | 10 to 25 | < 0.1 |
| O=C1NC[C@H](CNC(=O)c2cccc(S(=O)(=O)N[C@H]3CC4=C(c5ccn(C(F)F)n5)[C@H](c5ccc(F)cc5Cl)N=C(c5nccs5)N4C3)c2)O1 [Example 421] | > 25 | < 0.1 |
| O=C1NC2(CO1)CN(S(=O)(=O)N[C@H]1CC3=C(c4ccn(C(F)F)n4)[C@H](c4ccc(F)cc4Cl)N=C(c4nccs4)N3C1)C2 [Example 358] | > 25 | < 0.1 |
| O=S(=O)(N[C@H]1CC2=C(c3ccn(C(F)F)n3)[C@H](c3ccc(F)cc3Cl)N=C(c3nccs3)N2C1)N1CC(O)(c2ccccn2)C1 [Example 269] | > 25 | < 0.1 |
| Nc1cccc(S(=O)(=O)N[C@H]2CC3=C(c4ccn(C(F)F)n4)[C@H](c4ccc(F)cc4Cl)N=C(c4nccs4)N3C2)n1 [Example 383] | > 25 | < 0.1 |
| O=S(=O)(N[C@H]1CC2=C(c3ccn(C(F)F)n3)[C@H](c3ccc(F)cc3Cl)N=C(c3nccs3)N2C1)N[C@H]1CC[C@H](O)CC1 [Example 155] | > 25 | < 0.1 |
| O=S(=O)(N[C@H]1CC2=C(c3ccn(C(F)F)n3)[C@H](c3ccc(F)cc3Cl)N=C(c3nccs3)N2C1)N1CCCC[C@@H]1C(F)(F)F [Example 301] | > 25 | < 0.1 |
| O=S(=O)(N[C@H]1CC2=C(c3ccn(C(F)F)n3)[C@H](c3ccc(F)cc3Cl)N=C(c3nccs3)N2C1)N1CCC(O)(c2ccccc2)CC1 [Example 257] | 10 to 25 | < 0.1 |
| O=S(=O)(N[C@H]1CC2=C(c3ccn(C(F)F)n3)[C@H](c3ccc(F)cc3Cl)N=C(c3nccs3)N2C1)c1ccc(S(=O)(=O)C(F)F)cc1 [Example 340] | > 25 | < 0.1 |
| O=S(=O)(N[C@H]1CC2=C(c3ccn(C(F)F)n3)[C@H](c3ccc(F)cc3Cl)N=C(c3nccs3)N2C1)c1ccc(F)cc1F [Example 388] | > 25 | < 0.1 |
| O=S(=O)(N[C@H]1CC2=C(c3ccn(C(F)F)n3)[C@H](c3ccc(F)cc3Cl)N=C(c3nccs3)N2C1)N1CCC(O)(c2ncccn2)CC1 [Example 303] | > 25 | < 0.1 |
| O=S(=O)(N[C@H]1CC2=C(c3ccn(C(F)F)n3)[C@H](c3ccc(F)cc3Cl)N=C(c3nccs3)N2C1)N[C@H]1CC[C@@H](O)CC1 [Example 154] | > 25 | < 0.1 |
| O=C1CCCN1C1CCN(S(=O)(=O)N[C@H]2CC3=C(c4ccn(C(F)F)n4)[C@H](c4ccc(F)cc4Cl)N=C(c4nccs4)N3C2)CC1 [Example 293] | > 25 | < 0.1 |
| O=C(N[C@H]1CC2=C(c3ccn(C(F)F)n3)[C@H](c3ccc(F)cc3Cl)N=C(c3nccs3)N2C1)c1ccccc1 [Example 213] | 10 to 25 | < 0.1 |
| O=S(=O)(N[C@H]1CC2=C(c3ccn(C(F)F)n3)[C@H](c3ccc(F)cc3Cl)N=C(c3nccs3)N2C1)C1(c2ccccn2)CC1 [Example 377] | > 25 | < 0.1 |

| Structure (SMILES) | CC50 at 3 days [1] [µM] | EC50 (HBV) [µM] |
| --- | --- | --- |
| O=S(=O)(N[C@H]1CC2=C(c3ccn(C(F)F)n3)[C@H](c3ccc(F)cc3Cl)N=C(c3nccs3)N2C1)N1C[C@@H](F)[C@@H](F)C1 [Example 274] | < 10 | < 0.1 |
| O=S(=O)(N[C@H]1CC2=C(c3ccn(C(F)F)n3)[C@H](c3ccc(F)cc3Cl)N=C(c3nccs3)N2C1)N[C@H]1C[C@@H](O)C1 [Example 156] | > 25 | < 0.1 |
| O=S(=O)(N[C@H]1CC2=C(c3ccn(C(F)F)n3)[C@H](c3ccc(F)cc3Cl)N=C(c3nccs3)N2C1)c1cccc(F)c1 [Example 386] | 10 to 25 | < 0.1 |
| O=S(=O)(NC(c1ccccn1)c1ccccn1)N[C@H]1CC2=C(c3ccn(C(F)F)n3)[C@H](c3ccc(F)cc3Cl)N=C(c3nccs3)N2C1 [Example 361] | > 25 | < 0.1 |
| O=S(=O)(N[C@H]1CC2=C(c3ccn(C(F)F)n3)[C@H](c3ccc(F)cc3Cl)N=C(c3nccs3)N2C1)N1CCC(O)(C2CCCC2)CC1 [Example 267] | > 25 | < 0.1 |
| O=S(=O)(N[C@H]1CC2=C(c3ccn(C(F)F)n3)[C@H](c3ccc(F)cc3Cl)N=C(c3nccs3)N2C1)N1CCC(O)(C(O)CO)CC1 (some centres unmarked) [Example 96] | > 25 | < 0.1 |
| O=S(=O)(N[C@H]1CC2=C(c3ccn(C(F)F)n3)[C@H](c3ccc(F)cc3Cl)N=C(c3nccs3)N2C1)c1cccnc1 [Example 365] | > 25 | < 0.1 |
| CCOC(=O)CC1(S(=O)(=O)N[C@H]2CC3=C(c4ccn(C(F)F)n4)[C@H](c4ccc(F)cc4Cl)N=C(c4nccs4)N3C2)CC1 [Example 369] | > 25 | < 0.1 |
| O=S(=O)(N[C@H]1CC2=C(c3ccn(C(F)F)n3)[C@H](c3ccc(F)cc3Cl)N=C(c3nccs3)N2C1)[C@H]1CC[C@H](O)CC1 [Example 98] | > 25 | < 0.1 |
| O=C1OCCN1S(=O)(=O)N[C@H]1CC2=C(c3ccn(C(F)F)n3)[C@H](c3ccc(F)cc3Cl)N=C(c3nccs3)N2C1 [Example 72] | > 25 | < 0.1 |
| O=S1(=O)NCCN1[C@H]1CC2=C(c3ccn(C(F)F)n3)[C@H](c3ccc(F)cc3Cl)N=C(c3nccs3)N2C1 [Example 376] | > 25 | < 0.1 |
| O=S(=O)(N[C@H]1CC2=C(c3ccn(C(F)F)n3)[C@H](c3ccc(F)cc3Cl)N=C(c3nccs3)N2C1)[C@H]1CC[C@@H](O)CC1 [Example 99] | > 25 | < 0.1 |
| O=C1CCC(S(=O)(=O)N[C@H]2CC3=C(c4ccn(C(F)F)n4)[C@H](c4ccc(F)cc4Cl)N=C(c4nccs4)N3C2)CC1 [Example 97] | > 25 | < 0.1 |
| O=S(=O)(N[C@H]1CC2=C(c3ccn(C(F)F)n3)[C@H](c3ccc(F)cc3Cl)N=C(c3nccs3)N2C1)c1cnn(S(=O)(=O)c2cn[nH]c2)c1 [Example 21] | 10 to 25 | < 0.1 |
| O=S(=O)(N[C@H]1CC2=C(c3ccn(C(F)F)n3)[C@H](c3ccc(F)cc3Cl)N=C(c3nccs3)N2C1)c1ccc([C@H]2CC[C@](O)(c3ccccn3)CC2)cc1 [Example 385] | > 25 | < 0.1 |
| C[C@]1(O)CC[C@H](c2ccc(S(=O)(=O)N[C@H]3CC4=C(c5ccn(C(F)F)n5)[C@H](c5ccc(F)cc5Cl)N=C(c5nccs5)N4C3)cc2)CC1 [Example 411] | 10 to 25 | < 0.1 |
| O=S(=O)(N[C@H]1CC2=C(c3ccn(C(F)F)n3)[C@H](c3ccc(F)cc3Cl)N=C(c3nccs3)N2C1)N1CCC[C@@H]1C(F)(F)F [Example 287] | 10 to 25 | < 0.1 |
| O=S(=O)(N[C@H]1CC2=C(c3ccn(C(F)F)n3)[C@H](c3ccc(F)cc3Cl)N=C(c3nccs3)N2C1)N1CCOCC1 [Example 74] | > 25 | < 0.1 |
| O=S(=O)(NCCCO)N[C@H]1CC2=C(c3ccn(C(F)F)n3)[C@H](c3ccc(F)cc3Cl)N=C(c3nccs3)N2C1 [Example 79] | > 25 | < 0.1 |
| O=S(=O)(N[C@H]1CC2=C(c3ccn(C(F)F)n3)[C@H](c3ccc(F)cc3Cl)N=C(c3nccs3)N2C1)c1ccccc1F [Example 387] | > 25 | < 0.1 |
| O=S(=O)(N[C@H]1CC2=C(c3ccn(C(F)F)n3)[C@H](c3ccc(F)cc3Cl)N=C(c3nccs3)N2C1)N1CCC(O)(c2nccs2)CC1 [Example 260] | > 25 | < 0.1 |
| CC(C)(O)[C@@H]1CCCN1S(=O)(=O)N[C@H]1CC2=C(c3ccn(C(F)F)n3)[C@H](c3ccc(F)cc3Cl)N=C(c3nccs3)N2C1 [Example 289] | > 25 | < 0.1 |
| O=S(=O)(N[C@H]1CC2=C(c3ccn(C(F)F)n3)[C@H](c3ccc(F)cc3Cl)N=C(c3nccs3)N2C1)c1ccccn1 [Example 364] | > 25 | < 0.1 |
